Source: patent US8217155B2 (Gilead Colorado, Inc., priority 2007, dated 2012)
Where two headings read alike, the source gives them in different places.

Tests used:
[1] = target: T1, human ETA receptors expressed in CHO cells (Homo sapiens, UniProt P25101); experiment: In vitro ETA receptor binding, [125I]-labeled ET-1 displacement; conditions: incubation time 30 minutes; for affinity for the ETA receptor relative to that for the ETB receptor: CHO cells; for Ki: not steady-state, read-out: Ki ± SE, ETA
T1 construct: expressed in transfected cells; host or cells: CHO cells (membranes)
T1 sequence (P25101 21-427): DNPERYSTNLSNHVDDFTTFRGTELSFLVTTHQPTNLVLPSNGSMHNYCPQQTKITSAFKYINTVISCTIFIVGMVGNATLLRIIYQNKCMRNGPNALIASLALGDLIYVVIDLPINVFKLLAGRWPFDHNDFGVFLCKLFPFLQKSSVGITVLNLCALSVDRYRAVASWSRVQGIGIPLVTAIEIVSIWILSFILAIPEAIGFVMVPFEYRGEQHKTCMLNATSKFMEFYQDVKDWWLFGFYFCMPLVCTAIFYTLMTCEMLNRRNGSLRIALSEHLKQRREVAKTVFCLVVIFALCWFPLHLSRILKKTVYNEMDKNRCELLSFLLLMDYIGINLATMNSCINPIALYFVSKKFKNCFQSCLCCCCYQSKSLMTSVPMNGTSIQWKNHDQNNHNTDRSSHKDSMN
Protocol: (§1) The test compounds are dissolved at 10^−2M in methanol: Cremophor EL® 100:1 and diluted in deionized water to concentrations of […] to 10^−6 M. Binding reactions are initiated by addition of [^125I]-labeled ET-1 or [^125I]-labeled ET-3 for the ETA and ETB receptors, respectively, after 2 minutes preincubation of the membranes in the presence of Metabolite B or Metabolite C. The specific radioligand binding to each receptor is calculated as the difference between total binding and non-specific binding, determined in the presence of an excess of unlabeled ET-1. IC; values are determined by nonlinear curve fitting from experiments performed with 3 concentrations of test compound.

[2] = target: T2, human ETB receptors expressed in CHO cells (Homo sapiens, UniProt P24530); experiment: In vitro ETB receptor binding, [125I]-labeled ET-3 displacement; conditions: incubation time 30 minutes, not steady-state; read-out: Ki ± SE, ETB
T2 construct: expressed in transfected cells; host or cells: CHO cells (membranes)
T2 sequence (P24530 27-442): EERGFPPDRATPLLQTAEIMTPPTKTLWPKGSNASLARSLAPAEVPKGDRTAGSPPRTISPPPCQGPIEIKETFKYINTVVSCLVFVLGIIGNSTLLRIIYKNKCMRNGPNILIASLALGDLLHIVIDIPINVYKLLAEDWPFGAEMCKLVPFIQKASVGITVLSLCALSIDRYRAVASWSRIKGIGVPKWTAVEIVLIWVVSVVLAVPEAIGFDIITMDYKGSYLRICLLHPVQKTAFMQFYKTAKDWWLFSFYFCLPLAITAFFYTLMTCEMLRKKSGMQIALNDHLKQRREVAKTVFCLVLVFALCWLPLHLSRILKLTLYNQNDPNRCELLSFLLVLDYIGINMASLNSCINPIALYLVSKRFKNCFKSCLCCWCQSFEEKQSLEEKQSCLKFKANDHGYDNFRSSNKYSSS
Protocol: as §1

[3] = In vivo excretion in dogs; conditions: dog, after single 3 mg/kg oral dose of ambrisentan
[4] = In vitro metabolism in liver microsomes (phase I); type: in vitro ADME; conditions: rat, dog, and human liver microsomes
[5] = In vitro metabolism in human hepatocytes; type: in vitro ADME; conditions: 24-hour period
[6] = In vitro metabolism in rat hepatocytes; type: in vitro ADME; conditions: 24-hour period
[7] = system: uridine diphosphate glucuronosyl transferase (UGT) isoenzymes; experiment: Reaction phenotyping with microsomes expressing single UGT isoenzymes; type: in vitro ADME
Source text: (§2) Reaction phenotyping using microsomes expressing single CYP isoenzymes or uridine diphosphate glucuronosyl transferase (UGT) isoenzymes are used to identity those enzymes that are sufficient to metabolize ambrisentan in vitro.

CYP isoenzymes = experiment: Reaction phenotyping with microsomes expressing single CYP isoenzymes; type: in vitro ADME
Source text: as §2

[8] = Isolated perfused rat liver model; type: in vitro ADME, male Wistar rats; conditions: for cumulative excretion of total radioactivity in the bile: six hours; for decrease of total radioactivity in the perfusate: six hours post-dose
Protocol: The metabolic pathways of ambrisentan in male Wistar rats are investigated using the isolated perfused rat liver model. […] The livers are removed from 2 animals in each dose group and perfused in a recirculating system for 6 hours and the metabolite pattern of the perfusion medium and bile determined.

[9] = In vivo excretion in rats; conditions: ADME studies
[10] = Biliary excretion and enterohepatic circulation in rats; type: in vivo, male rats
Protocol: Bile and urine are collected over a 24-hour period. […] To assess enterohepatic circulation, a second set of rats (acceptor rats) is intraduodenally dosed with pooled bile (0-12 hour period) from the first set of rats (donor rats), and bile and urine are again collected over a 24-hour period. […] The metabolite patterns in bile from donor and acceptor rats are similar.

ETA receptor = target: T3, ETA receptor (Homo sapiens, UniProt P25101); conditions: human ventricular tissue; cited from earlier work
T3 construct: Studies performed in human ventricular tissue with ambrisentan; from tissue; host or cells: human ventricular tissue
T3 sequence (P25101 21-427): T1 sequence (P25101 21-427)

[11] = cited from earlier work
[12] = Biliary excretion in dogs; conditions: 10 mg/kg intraduodenal, eight hours post-administration
[13] = In vitro metabolism in dog hepatocytes; conditions: 24-hour period
[14] = dog, in vivo, po, 3 mg/kg
[15] = both, dog, in vivo, 10 mg/kg
[16] = dog, human, 24 h
[17] = donor rats, intraduodenal, within 24 hours

Structure (SMILES): Cc1cc(C)nc(OC(C(=O)O)C(O)(c2ccccc2)c2ccccc2)n1 (racemic) [Metabolite C]
- affinity for the ETA receptor relative to that for the ETB receptor [1]: about 100 times
- Ki [1]: 22.2 ± 4.2 nM
- Ki [2]: 556 ± 43.6 nM

Structure (SMILES): Cc1cc(C)nc(O)n1 [4,6-dimethyl-2hydroxypyrimidine, 4,6-dimethyl-2-hydroxypyrimidine]
- metabolite pattern in excreta [3]: main metabolite in urine

Structure (SMILES): COC(c1ccccc1)(c1ccccc1)[C@H](Oc1nc(C)cc(C)n1)C(=O)O [Ambrisentan, (S)-2-[(4,6-dimethylpyrimidin-2-yl)oxy]-3-methoxy-3,3-diphenylpropionic acid]
- Ki [1]: 0.63 ± 0.2 nM
- turnover of parent compound to hydroxylated metabolite (Metabolite B) [4]: 3-4%
- radiolabeled ambrisentan metabolized by phase II pathway [5]: 21%
- metabolized by phase II pathway [6]: 15%
- UGT isoenzymes that glucuronidate the compound [7]: UGT1A9S, UGT2B7S, and UGT1A3S
- CYP isoenzymes that oxidatively metabolize the compound (CYP isoenzymes): CYP3A4, CYP2C19, and CYP3A5
- cumulative excretion of total radioactivity in the bile ([8]; 3 mg/kg dose): 25%
- decrease of total radioactivity in the perfusate ([8]; 3 mg/kg dose): 55%
- cumulative excretion of total radioactivity in the bile ([8]; 10 mg/kg dose): 30%
- decrease of total radioactivity in the perfusate ([8]; 10 mg/kg dose): 55%
- cumulative excretion of total radioactivity in the bile ([8]; 30 mg/kg dose): 31%
- decrease of total radioactivity in the perfusate ([8]; 30 mg/kg dose): 45%
- share of parent compound among metabolic species in feces [9]: ca. 80%
- total radioactivity recovered in the bile of acceptor rats ([10]; acceptor rats dosed intraduodenally with pooled donor bile, 24-hour period): 76.5-94%
- total radioactivity recovered from the bile [10, 17]: 94.8%
- total radioactivity recovered from the urine [10, 17]: 1.5%
- share of parent compound among metabolic species in bile ([10]; rats, biliary excretion study): 95%
- affinity for the ETA receptor (ETA receptor): high affinity (low Ki)
- mean 6MWD, mean increase from baseline ([11]; all patients, after 12 weeks of treatment): 36 meters
- primary efficacy endpoint (exercise capacity measured by 6MWD) ([11]; phase II trials, all four dose groups): statistically significant and clinically meaningful increase
- total radioactivity excreted into the bile ([12]; female dogs): 47%
- total radioactivity excreted into the bile ([12]; male dogs): 54%
- radiolabeled ambrisentan metabolized by phase II pathway [13]: 25%

Structure (SMILES): COC(c1ccccc1)(c1ccccc1)[C@H](Oc1nc(C)cc(C)n1)C(=O)O[C@@H]1O[C@H](C(=O)O)[C@@H](O)[C@H](O)[C@H]1O [Metabolite A, (2S,3S,4S,5R,6S)-6-((S)-2-(4,6-Dimethylpyrimidin-2-yloxy)-3-methoxy-3,3-diphenylpropanoyloxy)-3,4,5-trihydroxytetrahydro-2H-pyran-2-carboxylic acid]
- metabolite pattern in excreta [14]: main metabolite in feces
- share of the total radioactivity in bile [15]: 77-81%

Structure (SMILES): COC(c1ccccc1)(c1ccccc1)[C@H](Oc1nc(C)cc(CO)n1)C(=O)O [Metabolite B, (S)-2-(4-(Hydroxymethyl)-6-methylpyrimidin-2-yloxy)-3-methoxy-3,3-diphenylpropanoic acid]
- affinity for the ETA receptor relative to that for the ETB receptor [1]: about 100 times
- Ki [1]: 40.3 ± 6.1 nM
- Ki [2]: 4100 ± 322 nM
- amount of hydroxylated metabolite detected [16]: < 1%
